ChEMBL document CHEMBL3608209, “N-Aryl benzenesulfonamide inhibitors of [3H]-thymidine incorporation and β-catenin signaling in human hepatocyte-derived Huh-7 carcinoma cells” (Bioorg Med Chem Lett, 2015)

Experiments:
[1] = test system: Huh-7; test: Inhibition of Wnt/beta catenin in human HuH7 cells assessed as [3H]-thymidine incorporation at 10 uM by scintillation counting analysis relative to DMSO-treated control; type: cell-based
[2] = test system: Huh-7; test: Inhibition of Wnt/beta catenin in human HuH7 cells assessed as decrease in TCF/LEF-dependent promoter activation at 10 uM after 36 hrs by TOPFlash luciferase reporter gene assay relative to control; type: cell-based
[3] = test system: Huh-7; test: Inhibition of Wnt/beta catenin in human HuH7 cells assessed as [3H]-thymidine incorporation at 10 uM by scintillation counting analysis relative to DMSO-treated control; values are per cent of control
[4] = test system: Huh-7; test: Inhibition of Wnt/beta catenin in human HuH7 cells assessed as [3H]-thymidine incorporation at 10 uM by scintillation counting analysis relative to FH535; type: cell-based

O=[N+]([O-])c1ccc(NS(=O)(=O)c2c(Cl)cccc2Cl)c2ccccc12
inhibition [1]: 26%
inhibition [2]: 47%
level, % of control [3]: 74%
fold change (FC) [4]: 0.7

O=[N+]([O-])c1ccc(NS(=O)(=O)c2cc(Cl)ccc2Cl)c2ccccc12
inhibition [1]: 48%
level, % of control [3]: 52%
fold change (FC) [4]: 1.3

Cc1cc(CO)ccc1NS(=O)(=O)c1ccccc1
inhibition [1]: 53%
level, % of control [3]: 47%
fold change (FC) [4]: 1.5

O=S(=O)(Nc1ccccc1Oc1ccccc1)c1c(Cl)cccc1Cl
inhibition [1]: 38%
inhibition [2]: 45%
level, % of control [3]: 62%
fold change (FC) [4]: 1.1

O=C(c1ccccc1)c1ccc(NS(=O)(=O)c2c(Cl)cccc2Cl)cc1
inhibition [1]: 33%
level, % of control [3]: 67%
fold change (FC) [4]: 0.9

Cc1cc(CO)ccc1NS(=O)(=O)c1c(F)cccc1F
inhibition [1]: 38%
level, % of control [3]: 62%
fold change (FC) [4]: 1.1

O=C(c1ccccc1)c1ccc(NS(=O)(=O)c2ccccc2)cc1
inhibition [1]: 38%
inhibition [2]: 46%
level, % of control [3]: 62%
fold change (FC) [4]: 1.1

O=S(=O)(Nc1ccccc1Oc1ccccc1)c1c(F)cccc1F
inhibition [1]: 34%
level, % of control [3]: 66%
fold change (FC) [4]: 0.9

O=S(=O)(Nc1cccc(OCc2ccccc2)c1)c1c(F)cccc1F
inhibition [1]: 43%
level, % of control [3]: 57%
fold change (FC) [4]: 1.2

COC(=O)c1cc(F)ccc1NS(=O)(=O)c1cc(Cl)ccc1Cl
inhibition [1]: 7%
inhibition [2]: 61%
level, % of control [3]: 93%
fold change (FC) [4]: 0.2

O=[N+]([O-])c1ccc(NS(=O)(=O)c2cc(F)ccc2F)c2ccccc12
inhibition [1]: 31%
inhibition [2]: 64%
level, % of control [3]: 69%
fold change (FC) [4]: 0.9

O=S(=O)(Nc1cccc(OCc2ccccc2)c1)c1c(Cl)cccc1Cl
inhibition [1]: 31%
inhibition [2]: 53%
level, % of control [3]: 69%
fold change (FC) [4]: 0.9

COC(=O)c1ccc(NS(=O)(=O)c2cc(Cl)ccc2Cl)c(C)c1
inhibition [1]: 18%
level, % of control [3]: 82%
fold change (FC) [4]: 0.5

Cc1cc(CO)ccc1NS(=O)(=O)c1cc(Cl)ccc1Cl
inhibition [1]: 67%
level, % of control [3]: 33%
fold change (FC) [4]: 1.9

O=S(=O)(Nc1cccc(OCc2ccccc2)c1)c1ccccc1
inhibition [1]: 29%
level, % of control [3]: 71%
fold change (FC) [4]: 0.8

Cc1cc([N+](=O)[O-])ccc1NS(=O)(=O)c1cc(Cl)ccc1Cl
inhibition [1]: 36%
inhibition [2]: 73%
level, % of control [3]: 64%

COC(=O)c1cc(Cl)ccc1NS(=O)(=O)c1cc(Cl)ccc1Cl
inhibition [1]: 0%
level, % of control [3]: 106%
fold change (FC) [4]: 0

O=[N+]([O-])c1ccc(NS(=O)(=O)c2ccccc2)c2ccccc12
inhibition [1]: 42%
inhibition [2]: 72%
level, % of control [3]: 58%
fold change (FC) [4]: 1.2

O=C(c1ccccc1)c1ccc(NS(=O)(=O)c2c(F)cccc2F)cc1
inhibition [1]: 33%
level, % of control [3]: 67%
fold change (FC) [4]: 0.9

COC(=O)c1ccc(NS(=O)(=O)c2c(Cl)cccc2Cl)c(C)c1
inhibition [1]: 29%
level, % of control [3]: 71%
fold change (FC) [4]: 0.8

Cc1cc(CO)ccc1NS(=O)(=O)c1c(Cl)cccc1Cl
inhibition [1]: 73%
inhibition [2]: 13%
level, % of control [3]: 27%
fold change (FC) [4]: 2
